Structures are written as SMILES.

A short description of the data set: gradient 5% acetonitrile 3 min, to 50% in 2 min, to 85% in 15 min, held 3 min, 100 µL/min. As to conditions: column: Zorbax Extend-C18 2.1 x 50 mm; eluents: water / acetonitrile, 0.1% formic acid. In outline:
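Mixtures of ~100 pure standards were chromatographed on a Zorbax Extend-C18 column (2.1 × 50 mm, 1.8 μm) at 100 μL/min using water and acetonitrile, each with 0.1% formic acid. Detection used a quadrupole time-of-flight mass spectrometer in positive and negative ionization mode, and data collection spanned 3 months. Retention time was obtained from adduct peaks picked computationally and each checked manually.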
As to `O=C(Nc1ccnn1Cc1ccccc1)c1cc(=O)c2cc(Br)ccc2o1`, the RP-LC retention time was 907 s.

The molecule `CC(C)CN1C(=O)c2cccn2CC1C(=O)NC1CCCCC1` (configuration not stated) had an RP-LC retention time of 797 s.

Molecule `Cc1ccsc1-c1nnc(CC(=O)N2CCN(Cc3ccc4c(c3)OCO4)CC2)o1` gave an RP-LC retention time of 640 s.

For `CCCc1nc(-c2c(C)cc(C)nc2NC(=O)c2ccc(F)cc2Cl)no1`, the RP-LC retention time is 937 s.

Consider `CC(NC(=O)C1CCN(C(=O)c2ncn3c2COC(c2ccccc2)C3)CC1)c1ccc(F)cc1` (configuration not stated), for which the RP-LC retention time is 848 s.

Molecule `CN1CCC(NC(=O)c2cccc3c2CCN3C(=O)c2ccc(F)cc2)CC1` had an RP-LC retention time of 602 s.

For `Cc1cc(-c2nnc(-c3ccco3)o2)c(C)n1CC(=O)NCc1ccccc1Cl`, the RP-LC retention time turned out to be 863 s.

In the case of `CCOc1ccc(-n2ccnc(NC(=O)Nc3cccc(OC)c3)c2=O)cc1`, the RP-LC retention time was 980 s.

As for `O=c1c2cc(-c3ccc(Br)cc3)nn2cnn1Cc1nc(-c2ccc3c(c2)OCO3)no1`, the RP-LC retention time worked out at 1160 s.

For `COC(=O)c1ccc(NC(=O)N2CCN(c3nc4ccccc4nc3C(F)(F)F)CC2)cc1`, the RP-LC retention time turned out to be 1080 s.

`Cc1cc2c(cc1S(=O)(=O)N1CCCC1C(=O)NCCCc1ccccc1)OC(C)C(=O)N2` (configuration not stated) displayed an RP-LC retention time of 822 s.

For `CN(CC1(C)CCOCC1)C(=O)NC1CCCCC1`, the RP-LC retention time worked out at 749 s.

The molecule `O=C(NCc1ccccc1)NC1CCN(c2nc3cccnc3n(Cc3ccccc3)c2=O)CC1` had an RP-LC retention time of 1020 s.

Molecule `CSc1c(N(C)C)c(=O)c1=S` yielded an RP-LC retention time of 756 s.

`CCC(=O)N1CCN(c2ccc(=O)n(-c3ccc(C(C)C)cc3)n2)CC1` had an RP-LC retention time of 780 s.

In turn, `Cc1ccccc1NC(=O)Nc1c(-c2ccc(F)cc2)nc2ccccn12` showed an RP-LC retention time of 661 s.

`CSc1nnc(-c2nn(C)c3c2CN(C(=O)c2ccc(Cl)cc2)CC3)n1C` gave an RP-LC retention time of 736 s.

`CC1(C(=O)NC2CCCCC2)CN(S(=O)(=O)c2ccccc2)CC(=O)N1c1cccc(F)c1` (configuration not stated) came in with an RP-LC retention time of 940 s.

The molecule `Cn1c(=O)c(N2CCC(C(=O)NCc3cccs3)CC2)nc2ccccc21` registered an RP-LC retention time of 805 s.

Molecule `CN(C)c1ccc(C(=O)N2CCN(c3cc(-c4ccc(Cl)cc4)[nH]n3)CC2)cc1` gave an RP-LC retention time of 865 s.

The molecule `COc1ccc(NC(=O)N2CCC3(CC2)N=C(c2ccc(F)cc2)C(=O)N3)c(OC)c1` registered an RP-LC retention time of 773 s.

`CCc1sc(NC(=O)c2cc(Cl)c(NC(C)=O)cc2OC)nc1-c1ccccc1` had an RP-LC retention time of 1170 s.

`Cc1ccc(CNC(=O)CN2CCc3ccccc3C2C(=O)N2CCCCC2)cc1C` (configuration not stated): the RP-LC retention time stood at 908 s.

Molecule `O=C(Nc1ccccc1)C1CCCN(c2nnc3ccccn23)C1` (configuration not stated) gave an RP-LC retention time of 598 s.

In turn, `O=C(Cn1cc(-c2ccc(F)cc2)oc1=O)N1CCN(c2cccc(Cl)c2)CC1` yielded an RP-LC retention time of 972 s.

Molecule `CN1CCN(c2ccc(Nc3cc(-c4cccc(-n5ccc6cc(C7CC7)cc(F)c6c5=O)c4CO)cn(C)c3=O)nc2)CC1` returned an RP-LC retention time of 702 s.

For `CCOC(=O)c1c(C)oc2ncnc(NCCc3c[nH]c4ccccc34)c12`, the RP-LC retention time was 1050 s.

As to `CCCNC(=O)N(C1CCOCC1)C1CCN(S(=O)(=O)c2ccc(C)cc2C)CC1`, the RP-LC retention time was 841 s.

Consider `CSc1ccc(CNC(=O)C2CCN(c3nnc(-c4ccccc4)o3)CC2)cc1`, for which the RP-LC retention time came out at 846 s.

Molecule `COc1cccc(-n2ccnc(NC(=O)Nc3cccc(F)c3)c2=O)c1` had an RP-LC retention time of 934 s.

`O=C(NCCc1c[nH]c2ccccc12)c1cccc(N2C(=O)CCS2(=O)=O)c1` returned an RP-LC retention time of 749 s.

On to `O=C(O)C1CCCN(c2cn[nH]c(=O)c2)C1` (configuration not stated), for which the RP-LC retention time came out at 564 s.

For the origin of these results see the METLIN SMRT retention time set (Domingo-Almenara et al. 2019).
